The test system of assay [1] is Human immunodeficiency virus 1. The assay is described as follows: Antiviral activity against HIV1 RF assessed as inhibition of viral infection in human T-lymphoblastoid cells. Format: functional, organism-based. The following applies: Human immunodeficiency virus 1, RF.
In another assay the test system is HepG2. The assay is described as follows: cells. To be noted: Homo sapiens, HepG2, 24 h.
A further assay addresses T1, Bile acid receptor (Homo sapiens, UniProt Q96RI1).
T1 sequence (Q96RI1 whole entry): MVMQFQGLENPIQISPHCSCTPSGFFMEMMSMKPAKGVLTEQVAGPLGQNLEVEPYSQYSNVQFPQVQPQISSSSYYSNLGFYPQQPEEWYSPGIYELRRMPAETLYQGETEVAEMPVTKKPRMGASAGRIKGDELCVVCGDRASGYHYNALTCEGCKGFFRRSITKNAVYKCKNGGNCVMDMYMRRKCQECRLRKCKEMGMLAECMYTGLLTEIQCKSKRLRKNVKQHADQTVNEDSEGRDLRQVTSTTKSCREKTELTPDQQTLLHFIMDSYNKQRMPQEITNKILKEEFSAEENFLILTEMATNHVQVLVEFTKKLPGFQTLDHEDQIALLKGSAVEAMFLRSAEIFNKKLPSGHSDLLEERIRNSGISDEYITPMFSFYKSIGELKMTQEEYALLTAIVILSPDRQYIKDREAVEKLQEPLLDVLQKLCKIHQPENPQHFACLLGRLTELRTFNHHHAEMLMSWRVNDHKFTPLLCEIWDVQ
The assay is described as follows: Antagonist activity at human FXR expressed in CV-1 cells assessed as inhibition of CDCA-induced receptor transactivation after 24 hrs by luciferase reporter gene assay. Format: cell-based. A general note: In a reporter assay the amount or activity of a reporter protein is the signal.

Assay [2] deals with T2, Bile acid receptor (Homo sapiens) (UniProt Q96RI1).
T2 sequence (whole entry): T1 sequence (Q96RI1 whole entry)
The assay is described as follows: Antagonist activity at human FXR expressed in CV-1 cells assessed as inhibition of CDCA-induced receptor transactivation upto 100 uM after 24 hrs by luciferase reporter gene assay. Format: cell-based.

Another assay deals with MCF7. The assay is described as follows: Antiproliferative activity against human MCF7 cells after 20 hrs by microculture tetrazolium assay. Format: functional. To be noted: MCF7, 20 h, read-out: ED50 (the source's name).
The next assay relates to Mus musculus. Description: Antiinflammatory activity in Swiss mouse assessed as inhibition of carrageenan-induced paw edema at 0.3 mg/kg, ip by hydroplethismometer. Format: functional. For orientation: Carrageenan injected into the paw causes an acute inflammation.
Assay [3] relates to Human immunodeficiency virus 1. The assay is described as follows: Antiviral activity against HIV1 3B infected in human PBMC cells assessed as reduction in reverse transcriptase activity after 5 days by XTT assay. The assay is classed as functional, organism-based. The following applies: Human immunodeficiency virus 1, 3B, 120 h. (In general: Formazan colour is commonly taken as a measure of viable cells.)

Structures are written as SMILES. The source made the active and inactive calls. No cut-off for these calls is given here.

Description for HepG2: Cytotoxicity against human HepG2 cells after 24 hrs by MTT assay

Take `CCC(C)/C=C(C)/C=C\C(O)C(C)(O)C(=O)NCC(=O)N[C@@H](C(=O)N[C@H](C(=O)N[C@H](C(=O)N[C@H]1C(=O)N[C@H](COC)C(=O)NCC(=O)N[C@@H](C)CN(C)[C@H]([C@@H](C)O)CNC(C(OC)c2ccc(O)cc2)C(=O)N2CCCC[C@H]2C(=O)O[C@@H]1C(C)C)[C@@H](C)[C@@H](C)C(N)=O)[C@H](C)N)[C@@H](C)O` (stereo not given in full): the EC50 in assay [1] was 0.0026 µM. On to `COc1cccc2c1C(=O)c1c(O)c3c(c(O)c1C2=O)C[C@@](O)(C(=O)CO)C[C@@H]3O[C@H]1C[C@H](N)[C@H](O)[C@H](C)O1` [DOXORUBICIN], for which the IC50 in the assay with HepG2 was determined as 2.1 µM. For the molecule `CC(C)[C@@H](NC(=O)[C@H]1CCCN1C(=O)[C@H](Cc1ccccc1)NC(=O)[C@@H](C)NC=O)C(=O)N[C@H](C(=O)N[C@H](Cc1c[nH]c2ccccc12)C(=O)N[C@@H](CCCNC(=N)N)C(=O)N[C@H](CS(=O)(=O)O)C(=O)N[C@H]1C(=O)N(C)[C@H](CCC(N)=O)C(=O)N[C@@H](Cc2ccccc2)C(=O)N[C@H]([C@H](C)O)C(=O)N[C@H](CC(N)=O)C(=O)N(C)CC(=O)O[C@@H]1C)C(C)(C)C`, the results for the 50% inhibitory concentration (IC50) in the assay on HepG2 and on Bile acid receptor were 100 µM and 6 µM, respectively. Take `CC(C)[C@@H](NC(=O)[C@H]1CCCN1C(=O)[C@H](Cc1ccc(Br)cc1)NC(=O)[C@@H](C)NC=O)C(=O)N[C@H](C(=O)N[C@H](C[C@@]1(O)C(=O)Nc2ccccc21)C(=O)N[C@@H](CCCNC(=N)N)C(=O)N[C@H](CS(=O)(=O)O)C(=O)N[C@H]1C(=O)N(C)[C@H](CCC(N)=O)C(=O)N[C@@H](Cc2ccccc2)C(=O)N[C@H]([C@H](C)O)C(=O)N[C@H](CC(N)=O)C(=O)N(C)CC(=O)O[C@@H]1C)C(C)(C)C`: it took 100 µM to reach half-maximal inhibition in the assay with HepG2 (IC50). The inhibition result in assay [2] was “inactive”. `CC(C)[C@@H](NC(=O)[C@H]1CCCN1C(=O)[C@H](Cc1ccc(Br)cc1)NC(=O)[C@@H](C)NC=O)C(=O)N[C@H](C(=O)N[C@H](C[C@]1(O)C(=O)Nc2ccccc21)C(=O)N[C@@H](CCCNC(=N)N)C(=O)N[C@H](CS(=O)(=O)O)C(=O)N[C@H]1C(=O)N(C)[C@H](CCC(N)=O)C(=O)N[C@@H](Cc2ccccc2)C(=O)N[C@H]([C@H](C)O)C(=O)N[C@H](CC(N)=O)C(=O)N(C)CC(=O)O[C@@H]1C)C(C)(C)C` returned an IC50 with HepG2 of 100 µM. The inhibition result in assay [2] is “inactive”. On to `CN[C@H](C(=O)N[C@H](C(=O)N(C)[C@H](/C=C(\C)C(=O)O)C(C)C)C(C)(C)C)C(C)(C)c1cn(C)c2ccccc12` [HEMIASTERLIN], for which, in the assay with MCF7, the EC50 was found to be 0.0005 µM.

Turning to `CC(C)[C@H](NC(=O)[C@H](NC(=O)[C@@H]1CCCN1C(=O)[C@H](Cc1ccc(Br)cc1)NC(=O)[C@@H](C)NC=O)C(C)C)C(=O)N[C@H](Cc1c[nH]c2ccccc12)C(=O)N[C@@H](CCCNC(=N)N)C(=O)N[C@H](CS(=O)(=O)O)C(=O)N[C@@H]1C(=O)N(C)[C@@H](CCC(N)=O)C(=O)N[C@H](Cc2ccccc2)C(=O)N[C@@H]([C@@H](C)O)C(=O)N[C@@H](CC(N)=O)C(=O)N(C)CC(=O)O[C@@H]1C`, the results for the IC50 in the assay on HepG2 and at Bile acid receptor were 20 µM and 0.5 µM, respectively. With `CCC[C@@H](CC[C@@H](C)[C@@H]1OC(=O)[C@H](C)NC(=O)[C@H]([C@@H](C)CCO)N(C)C(=O)[C@]2(C)CSC(=N2)[C@H](C)NC(=O)C1(C)C)OC`, the inhibition in vivo at 0.3 mg/kg with Mus musculus amounted to 60%. Regarding `CC[C@@H](C)C[C@@H](C)[C@@H](O)[C@@H](C)C(=O)N[C@H](CCCN)C(=O)N[C@@H](CCC(=O)O)[C@@H](O)[C@@H](O)C(=O)N[C@H](C(=O)N[C@H]1C(=O)N[C@H](CO)C(=O)N[C@H](CCCN)C(=O)N[C@@H](CC(C)C)C(=O)N(C)[C@@H](CCC(N)=O)C(=O)N[C@@H]([C@@H](C)OC)C(=O)N[C@H](CC(=O)O)C(=O)N2CCCC[C@H]2C(=O)O[C@@H]1[C@H](C)C(C)C)[C@@H](C)[C@@H](C)C(N)=O`, the IC50 in assay [3] came out at 0.075 µM. Consider `CC(C)[C@@H](NC(=O)[C@@H]1CCCN1C(=O)[C@H](Cc1ccc(Br)cc1)NC(=O)[C@@H](C)NC=O)C(=O)N[C@H](C(=O)N[C@H](Cc1c[nH]c2ccccc12)C(=O)N[C@@H](CCCNC(=N)N)C(=O)N[C@H](CS(=O)(=O)O)C(=O)N[C@@H]1C(=O)N(C)[C@@H](CCC(N)=O)C(=O)N[C@H](Cc2ccccc2)C(=O)N[C@@H]([C@@H](C)O)C(=O)N[C@@H](CC(N)=O)C(=O)N(C)CC(=O)O[C@@H]1C)C(C)(C)C`, for which the results for the IC50 in the assay with HepG2 and at Bile acid receptor were 100 µM and 5 µM, respectively.

Usually IC50 stands for the concentration needed to halve the response being measured. By inhibition in vivo is commonly meant the relative decrease from the control value, in per cent.
